Reference: ChEMBL document CHEMBL6096705, “Identification of a Chemical Probe for BLT2 Activation by Scaffold Hopping” (J Med Chem, 2025)
≈ marks a conversion by molar mass, not a printed value.

Key:
[1] = target: T1, Leukotriene B4 receptor 2 (Homo sapiens, UniProt Q9NPC1); assay: Agonist activity at human BLT2 expressed in CHO-K1 cells overexpressing GNAi2 assessed as inhibition of forskolin-induced cAMP accumulation preincubated for 40 mins followed by forskolin addition and measured after 20 mins by HTRF assay; format: functional, cell-based
T1 sequence (Q9NPC1 whole entry): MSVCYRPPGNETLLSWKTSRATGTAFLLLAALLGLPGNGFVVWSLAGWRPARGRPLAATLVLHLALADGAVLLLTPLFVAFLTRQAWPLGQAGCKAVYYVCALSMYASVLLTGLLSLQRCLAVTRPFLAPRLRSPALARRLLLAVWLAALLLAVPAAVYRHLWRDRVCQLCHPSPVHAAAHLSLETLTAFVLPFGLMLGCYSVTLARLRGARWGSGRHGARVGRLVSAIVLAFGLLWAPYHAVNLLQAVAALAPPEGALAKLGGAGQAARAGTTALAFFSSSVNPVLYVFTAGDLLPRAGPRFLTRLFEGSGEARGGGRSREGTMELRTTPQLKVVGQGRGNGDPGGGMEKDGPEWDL

[2] = target: T1, Leukotriene B4 receptor 2; assay: Agonist activity at BLT2 (unknown origin); format: functional
[3] = target: T1, Leukotriene B4 receptor 2; assay: Agonist activity at human BLT2 expressed in CHO-K1 cells overexpressing GNA14 assessed as induction of IP-1 accumulation incubated for 90 mins by HTRF assay; format: functional, cell-based
[4] = target: T1, Leukotriene B4 receptor 2; assay: Displacement of FITC-labeled tracer from Lumi4 Tb-labeled BLT2 (unknown origin) expressed in CHO-K1 cells incubated for 1 hrs by Tag-lite displacement based HTRF assay; format: cell-based
[5] = target: T2, Type-1 angiotensin II receptor (Homo sapiens, UniProt P30556)
T2 sequence (P30556 whole entry): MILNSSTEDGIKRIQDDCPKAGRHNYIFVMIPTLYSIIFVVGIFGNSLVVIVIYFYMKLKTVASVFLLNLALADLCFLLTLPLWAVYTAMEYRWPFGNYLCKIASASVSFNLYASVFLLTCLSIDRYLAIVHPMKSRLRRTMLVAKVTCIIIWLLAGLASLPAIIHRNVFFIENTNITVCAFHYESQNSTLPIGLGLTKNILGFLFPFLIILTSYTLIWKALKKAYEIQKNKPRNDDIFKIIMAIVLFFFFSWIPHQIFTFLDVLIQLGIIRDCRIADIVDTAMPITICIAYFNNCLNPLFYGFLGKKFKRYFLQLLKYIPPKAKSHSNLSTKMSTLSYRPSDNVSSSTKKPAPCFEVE
Description: Antagonist activity at human AT1 receptor expressed in CHO-K1 cells co-expressing GNA14 assessed as inhibition of Val5-Angiotensin-II induced IP-1 accumulation incubated for 90 mins by HTRF assay

[6] = Cytotoxicity against human MRC9 cells assessed as effect on cell viability at 10 uM measured after 24 hrs by CellTiter-Glo assay; format: toxicity, cell-based; conditions: mrc9, 24 h
[7] = test system: HEK-293T; assay: Cytotoxicity against HEK293T cells assessed as effect on cell viability at 10 uM measured after 24 hrs by CellTiter-Glo assay; format: toxicity, cell-based; conditions: human
[8] = Half-life in male C57BL/6J mouse at 10 mg/kg, po by LC-MS analysis; format: ADME, organism-based; conditions: in vivo
[9] = Oral bioavailability in male C57BL/6J mouse at 10 mg/kg by LC-MS analysis; format: ADME, organism-based; conditions: in vivo
[10] = Aqueous solubility of compound in PBS buffer at pH 7.4 by precipitation based plate reader analysis; format: physicochemical
[11] = Toxicity in male C57BL/6J mouse assessed as effect on normal behavior at 10 mg/kg, SC; format: organism-based; conditions: in vivo
[12] = Toxicity in male C57BL/6J mouse assessed as effect on normal behavior at 3 mg/kg, iv; format: organism-based; conditions: in vivo
[13] = Toxicity in male C57BL/6J mouse assessed as effect on normal behavior at 10 mg/kg, po; format: organism-based; conditions: in vivo
[14] = AUC (0 to infinity) in male C57BL/6J mouse at 10 mg/kg, SC by LC-MS analysis; format: ADME, organism-based; conditions: in vivo
[15] = AUC (0 to infinity) in male C57BL/6J mouse at 10 mg/kg, po by LC-MS analysis; format: ADME, organism-based; conditions: in vivo
[16] = test system: HepG2; assay: Cytotoxicity against human HepG2 cells assessed as effect on cell viability at 100 uM measured after 72 hrs by CellTiter-Glo assay; format: toxicity, cell-based; conditions: hepg2, 72 h
[17] = test system: U2OS; assay: Cytotoxicity against human U2OS cells assessed as effect on cell viability at 10 uM measured after 24 hrs by CellTiter-Glo assay; format: toxicity, cell-based
[18] = Metabolic stability in Sprague-Dawley rat liver microsomes assessed as parent compound remaining measured upto 60 mins in presence of NADPH by HPLC analysis; format: ADME, Microsome; conditions: read-out: Stability
[19] = Cmax in male C57BL/6J mouse at 10 mg/kg, po by LC-MS analysis; format: ADME, organism-based; conditions: in vivo
[20] = Tmax in male C57BL/6J mouse at 10 mg/kg, po by LC-MS analysis; format: ADME, organism-based; conditions: in vivo
[21] = Half-life in male C57BL/6J mouse at 10 mg/kg, SC by LC-MS analysis; format: ADME, organism-based; conditions: in vivo
[22] = AUC (0 to infinity) in male C57BL/6J mouse at 3 mg/kg, iv by LC-MS analysis; format: ADME, organism-based; conditions: in vivo
[23] = Half-life in male C57BL/6J mouse at 3 mg/kg, iv by LC-MS analysis; format: ADME, organism-based; conditions: in vivo
[24] = Cmax in male C57BL/6J mouse at 3 mg/kg, iv by LC-MS analysis; format: ADME, organism-based; conditions: in vivo
[25] = Binding affinity to BLT1 (unknown origin); design: species or system Homo sapiens

CCCCC[C@H](O)/C=C/C=C/C/C=C\CCCC(=O)O
EC50 [1]: 0.0014 µM
pEC50 [2]: 7.72

CCCCC(=O)N1Cc2cc(-c3ccccc3-c3nnn[nH]3)ccc2C1C (stereo unspecified)
EC50 [3]: 1.39 µM

CCCCC1=NC2(CCCC2)C(=O)N1Cc1ccc(-c2ccccc2-c2nnn[nH]2)cc1 [IRBESARTAN]
IC50 [4]: ≥ 1.5 µM

CCCCC(=O)N1Cc2ccc(-c3ccccc3-c3nnn[nH]3)cc2C1
IC50 [5]: > 400 µM

CCCCC1(C)C(=O)N(Cc2ccc(-c3ccccc3C(=O)O)cc2)c2ccccc21 (stereo unspecified)
IC50 [5]: 58 µM

CCCCC(=O)N1CC2(C1)CN(c1ccccc1-c1nnn[nH]1)C2
Activity [6]: Non-toxic
Activity [7]: Non-toxic
half-life [8]: 154 min
bioavailability [9]: 51%
solubility kinetic [10]: ≥ 1000 µM
Activity [11]: Non-toxic
Activity [12]: Non-toxic
Activity [13]: Non-toxic
AUC(0-inf) [14]: 4080 ng·h/mL
AUC(0-inf) [15]: 1730 ng·h/mL
Activity [16]: Non-toxic
Activity [17]: Non-toxic
remaining at 1 h [18]: 97.5%
Cmax [19]: 1990 ng/mL
Tmax [20]: 15 min
half-life [21]: 62 min
AUC(0-inf) [22]: 1020 ng·h/mL
half-life [23]: 19 min
Cmax [24]: 3290 ng/mL

CCCCC(=O)N1CCC2(CC1)CCN(c1ccccc1-c1nnn[nH]1)C2
solubility kinetic [10]: ≥ 1000 µM
remaining at 1 h [18]: 99.8%
IC50 [5]: 13.6 µM

CCCCC/C=C\C[C@@H](O)/C=C/C=C/C=C\[C@@H](O)CCCC(=O)O [LEUKOTRIENE_B4]
pKd [25]: 8.5

CCc1cnc(N2Cc3ccc(-c4ccccc4-c4nnn[nH]4)cc3C2)s1
solubility kinetic [10]: 250 µM (≈ 93.6 µg/mL)
remaining at 1 h [18]: 89%
IC50 [5]: 79 µM

CCCCC(=O)N(Cc1ccc(-c2ccccc2C(=O)O)cc1)c1ccccc1
solubility kinetic [10]: 250 µM (≈ 96.9 µg/mL)
Activity [16]: Non-toxic
remaining at 1 h [18]: 66%
IC50 [5]: 53 µM
IC50 [4]: 0.063 µM

CCCCC(=O)N1CCc2ccc(-c3ccccc3C(=O)O)cc2C1
EC50 [3]: 18.4 µM

CCc1nnc(N2Cc3ccc(-c4ccccc4-c4nnn[nH]4)cc3C2)o1
solubility kinetic [10]: 750 µM (≈ 270 µg/mL)
remaining at 1 h [18]: 101%
IC50 [5]: 15.8 µM
